The results in this text go back to US20160038526A1, “TREATMENT OF PROSTATE CANCER” (THOMAS JEFFERSON UNIVERSITY, priority 2012, published 2016).

Experiment [1] concerns the target T1, Stat5a (Homo sapiens, UniProt P42229).
T1 sequence (P42229 1-794): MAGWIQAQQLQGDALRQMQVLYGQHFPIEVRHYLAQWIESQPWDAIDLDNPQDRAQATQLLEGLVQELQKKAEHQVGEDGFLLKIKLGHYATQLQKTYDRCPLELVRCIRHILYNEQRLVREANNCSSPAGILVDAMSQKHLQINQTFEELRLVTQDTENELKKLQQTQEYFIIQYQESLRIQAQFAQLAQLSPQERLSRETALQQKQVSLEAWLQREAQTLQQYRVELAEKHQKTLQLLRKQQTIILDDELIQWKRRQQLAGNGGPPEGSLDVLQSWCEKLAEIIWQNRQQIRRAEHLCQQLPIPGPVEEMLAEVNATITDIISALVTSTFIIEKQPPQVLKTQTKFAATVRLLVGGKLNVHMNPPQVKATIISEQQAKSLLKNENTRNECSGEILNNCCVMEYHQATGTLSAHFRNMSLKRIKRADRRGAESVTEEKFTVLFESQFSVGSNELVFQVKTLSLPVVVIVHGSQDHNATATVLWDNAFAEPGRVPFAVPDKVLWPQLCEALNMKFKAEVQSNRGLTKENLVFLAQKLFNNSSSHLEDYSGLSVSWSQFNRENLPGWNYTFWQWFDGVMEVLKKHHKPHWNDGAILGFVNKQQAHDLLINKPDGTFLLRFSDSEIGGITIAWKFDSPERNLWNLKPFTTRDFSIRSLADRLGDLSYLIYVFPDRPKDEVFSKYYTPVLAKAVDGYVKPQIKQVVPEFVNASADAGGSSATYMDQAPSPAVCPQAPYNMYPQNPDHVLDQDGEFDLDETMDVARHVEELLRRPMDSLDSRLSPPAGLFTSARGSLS
As to the kind of experiment: Stat5a transcriptional activity, β-casein promoter luciferase reporter gene assay in PC-3 cells. The format is cell-based. Further details: expressed in transfected cells; host or cells: PC-3 (human prostate cancer cell line). The settings on record: 1 hour pretreatment, 10 nM hPrl for 16 hours. As to the method:
Cells of the human prostate cell line PC-3 were plated into 96-well plate at the density of 2×10^5 per well. After 24 hours of plating, cells were transiently co-transfected using FuGENE6 (Roche) with 0.25 μg of each of pStat5a or pStat5b, pPrlR (prolactin receptor) plasmids, 0.5 μg of pBeta-casein-luc and 0.025 μg of pRL-TK (Renilla luciferase) plasmids as an internal control. After another 24 hours of transfection, the cells were starved in serum-free medium for 8 hours, pretreated with N^6-benzyladenosine-5′-monophosphate (“N6BAP”), or one of five control compounds (designated “C3” through “C7”) of similar molecular weight but unrelated chemical structure to N6BAP), for 1 hour, and then stimulated with 10 nM human prolactin (hPrl) in the serum-free medium for additional 16 hours. The lysates were assayed for firefly and Renilla luciferase activities using the Dual-Luciferase reporter assay system (Promega). Three independent experiments were carried out in triplicate. The firefly luciferase activity was normalized to the Renilla luciferase activity of the same sample, and the mean was calculated from the parallels. From the mean values of each independent run, the overall mean and its standard deviation (S.D.) were calculated.
For orientation: Reporter assays use an easily measured gene product as a stand-in for the process of interest.

In experiment [2] the test system is Stat5a/b. Briefly: Nuclear Stat5a/b immunostaining in CWR22Rv1 xenograft tumors. The format is in vivo, nude mice. The settings on record: CWR22Rv1 xenograft tumors of Example 10. As to the method:
Nuclear active Stat5a/b or nuclear active Stat3 were analyzed by immunostaining with an anti-Stat5a/b or anti-Stat3 antibody, respectively, and biotin-streptavidin amplified peroxidase antiperoxidase immunodetection of paraffin-embedded sections of the prostate xenograft tumors of Example 10. Anti-Stat5a/b (mAb) (55 ng/ml) (Santa Cruz Biotechnology) was used as the primary antibody and antigen-antibody complexes were detected by appropriate biotinylated goat secondary antibodies (Biogenex Laboratories) followed by streptavidin-horseradish-peroxidase complex, and 3,3′-diaminobenzidine as chromogen and Mayer hematoxylin as counterstain. Three microscopic views of each tumor (ten tumors per each treatment group) were photographed at 20× magnification. Nuclear Stat5 and Stat3 indexes were determined by counting epithelial cells with nuclear Stat5a/b immunostaining-positive cells per total number of epithelial cells per view. The counts were averaged within the tumors in a given treatment group.

In experiment [3] the test system is CWR22Rv1 cells. As to the kind of experiment: Nucleosomal DNA fragmentation (nucleosomal ELISA) in CWR22Rv1 cells. The format is cell-based, human. The settings on record: 24 μM N6BAP. Background: ELISA stands for enzyme-linked immunosorbent assay.
Experiment [4] deals with Stat3 (Homo sapiens, UniProt P40763). Briefly: IL-6-induced nuclear translocation of Stat3 in DU145 cells (immunofluorescence). The format is cell-based. Further details: endogenous in cells; host or cells: DU145. The settings on record: 2 hours pretreatment, 10 nmol/L IL-6 30 minutes. As to the method: DU145 prostate cancer cells were pretreated with N6BAP or vehicle (DMSO) for 2 hours and then stimulated with 10 nmol/L IL-6 for 30 minutes. Cells were fixed with 100% methanol for 15 min and subsequently permeabilized with 0.1% Triton X-100 in PBS (pH 7.4). After blocking with 2% bovine serum albumin in PBS, cells were incubated with an antibody specific for Stat3 at 4° C. for 2 hours. Cells were then washed with PBS and incubated with FITC-conjugated secondary antibody (Jackson ImmunoResearch) at room temperature for 1 hour. The images were taken by using an inverted fluorescence microscopy (Carl Zeiss).

The subject of experiment [5] is DU145 cells. As to the kind of experiment: Cell viability, MTS metabolic activity assay, DU145. The format is cell-based, human. As to conditions: DU145, 72 hours. As to the method: CWR22Rv1 prostate cancer cells were treated with N6BAP or the control compound C5 (Ctrl) at 25 μM concentration or vehicle for 24 h. Following trypan blue exclusion, the attached viable vs. de-attached dead cells were counted. […] The bars indicate mean±SD of triplicate wells. In another assay, CWR22Rv1, LNCaP and DU145 cells were treated with N6BAP, the control compound C5 (Ctrl) or vehicle at indicated concentrations. The fraction of alive cells was determined by MTS ([…]) metabolic activity assay (CellTiter 96® AQueous Assay kit). The results are shown in FIGS. 9C, 9D and 9E, respectively.
Background: Formazan colour is commonly taken as a measure of viable cells.

Entries after “also recorded” stand apart in the source; their conditions may differ.

Stat3, sequence (P40763 whole entry, species assumed): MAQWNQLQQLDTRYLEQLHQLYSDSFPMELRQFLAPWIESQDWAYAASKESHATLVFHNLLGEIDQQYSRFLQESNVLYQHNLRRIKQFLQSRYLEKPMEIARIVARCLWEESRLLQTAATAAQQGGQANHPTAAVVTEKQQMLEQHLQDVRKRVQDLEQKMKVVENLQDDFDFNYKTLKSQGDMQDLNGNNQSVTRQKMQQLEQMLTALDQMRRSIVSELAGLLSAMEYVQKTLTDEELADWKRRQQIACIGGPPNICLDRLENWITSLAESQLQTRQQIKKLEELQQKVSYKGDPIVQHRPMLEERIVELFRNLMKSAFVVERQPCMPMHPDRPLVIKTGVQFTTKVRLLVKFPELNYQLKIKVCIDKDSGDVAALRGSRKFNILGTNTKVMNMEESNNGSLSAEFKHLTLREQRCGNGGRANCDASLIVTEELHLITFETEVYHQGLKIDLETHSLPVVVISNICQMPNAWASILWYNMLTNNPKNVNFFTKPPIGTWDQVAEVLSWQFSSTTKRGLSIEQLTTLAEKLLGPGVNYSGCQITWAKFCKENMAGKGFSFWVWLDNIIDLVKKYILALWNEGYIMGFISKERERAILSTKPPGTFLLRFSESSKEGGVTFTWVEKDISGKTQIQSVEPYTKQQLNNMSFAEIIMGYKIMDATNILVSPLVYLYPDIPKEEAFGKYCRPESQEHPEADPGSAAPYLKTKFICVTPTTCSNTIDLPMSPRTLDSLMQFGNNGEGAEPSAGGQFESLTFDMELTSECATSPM

In the case of `O=P(O)(O)OC[C@H]1O[C@@H](n2cnc3c(NCc4ccccc4)ncnc32)[C@H](O)[C@@H]1O` [N6BAP, N^6-benzyladenosine-5′-monophosphate], the “transcriptional activity of Stat5a on the β-casein gene promoter” value in experiment [1] was “inhibited Stat5a and Stat5b transcriptional activity in a concentration-dependent manner; also recorded: effectively blocks the transcriptional activity”. In addition, in experiment [2], the “nuclear Stat5a/b expression in xenograft tumors” value is recorded as “inhibits nuclear Stat5a/b expression”. Also, the “DNA fragmentation (apoptosis)” value in experiment [3] is on record as “N6BAP-induced DNA fragmentation”. The “nuclear translocation of IL-6-induced Stat3” value in experiment [4] is “did not block translocation of Stat3 to the nucleus”. In experiment [5], the “number of viable cells” value is listed as “decreases the number of viable cells”.
